Experimental data from paper PMC4319760, “Rapid Identification of α-Glucosidase Inhibitors from Phlomis tuberosa by Sepbox Chromatography and Thin-Layer Chromatography Bioautography” (PLoS ONE, 2015).

Tested on: α-D-glucosidase
Assay: TLC bioautographic assay for α-glucosidase inhibitors
Assay type: biochemical
Details: S1 Fig, subfractions 20 μL, ethyl acetate fraction 5 mg/mL, acarbose 1 mg/mL, 4 μL, qualitative
Source text: In the present work, a high-performance thin-layer chromatographic system (CAMAG, Switzerland) equipped with an automatic TLC Sampler 4 and a Reprostar 3 with a 12-bit charge-coupled device camera for photo-documentation and controlled by WinCATS-4 software was used. […] After migration of the samples with appropriate solvents or no migration, the plates were inspected under ultraviolet light (366 nm) and then subjected to bioautographic assay as described below.
TLC bioautographic assay: TLC bioautographic assay was carried out as described previously in terms of reaction principle and response system but with slight modifications. First, the concentration of α-glucosidase was reduced from 10 U/mL to 2.5 U/mL. Second, the plate was dipped into the reaction solutions (including the enzyme solution, the substrate solution, and the coloration solution), instead of being sprayed with them. Third, the conditions for enzyme incubation were changed from room temperature for 60 min to 37°C for 30 min. Briefly, α-D-glucosidase (750 U) was dissolved in 75 mL of buffer solution (10.25 g of sodium acetate in 250 mL with addition of 0.1 M acetic acid to pH 7.5). The stock solution was kept at -20°C. A stock solution of 25 mL was diluted with the same buffer solution to 100 mL as the enzyme solution, and a substrate solution of 1 mg/mL 2-naphthyl-α-D-glucopyranoside in ethanol was prepared. […]

With `C[C@H]1O[C@H](O[C@H]2[C@H](O)[C@@H](O)[C@@H](O[C@H]3[C@H](O)[C@@H](O)C(O)O[C@@H]3CO)O[C@@H]2CO)[C@H](O)[C@@H](O)[C@@H]1N[C@H]1C=C(CO)[C@@H](O)[C@H](O)[C@H]1O` (some centres unmarked) [Acarbose, acarbose] as the compound, how does the “α-glucosidase inhibitory activity in bioautographic chromatogram (white spots), screening” value read?
Its value is “produced white spots”.

Tested on: not given
Assay: not given
Design: method as in PMID 23850835, PMID 18460146
Details: previous toxicity studies; ref [23]–[25]; cited from earlier work

For `C[C@@H]1O[C@@H](O[C@@H]2[C@@H](O)[C@H](OCCc3ccc(O)c(O)c3)O[C@H](CO)[C@H]2OC(=O)/C=C/c2ccc(O)c(O)c2)[C@H](O)[C@H](O)[C@H]1O` [Compound 7, acteoside], which toxicity is on record?
Its toxicity is “nontoxic”.

Which toxicity does the source give for `COc1ccc(-c2cc(=O)c3c(O)cc(OC4OC(COC5OC(C)C(O)C(O)C5O)C(O)C(O)C4O)cc3o2)cc1` (centres unmarked) [Compound 10, acacetin-7-rutinoside] here?
Its toxicity is “nontoxic”.

Which toxicity does the source give for `CC1OC(Oc2c(-c3ccc(O)c(O)c3)oc3cc(O)cc(O)c3c2=O)C(O)C(O)C1O` (centres unmarked) [Compound 12, quercetin-3-rhamnoside] here?
The toxicity was “nontoxic”.

Molecular target: α-Glucosidase
Assay: α-Glucosidase inhibitory activity assay (4-nitrophenyl α-glucopyranoside substrate, absorbance at 405 nm)
Assay type: biochemical, Saccharomyces cerevisiae
Details: 0.26 U/mL enzyme, pH 6.8, 37°C; mean ± SEM, triplicate
Description: After incubation at 37°C for 10 min, 100 μL of the substrate, 4-nitrophenyl α-glucopyranoside (5 mM, in potassium phosphate buffer) was added to the mixture. The enzymatic reaction was allowed to proceed at 37°C for 20 min and stopped by addition of 100 μL of 0.2 M NaCO3. 4-Nitrophenol absorptions were subsequently measured at 405 nm using a spectrophotometer. […] The IC50 value was defined as the concentration of α-glucosidase inhibitor required to inhibit 50% of α-glucosidase activity under the assay conditions. Experiments were performed in triplicate, and all results are expressed as mean ± SEM.

Which IC50 does the source give for `C[C@@H]1O[C@@H](O[C@@H]2[C@@H](O)[C@H](OCCc3ccc(O)c(O)c3)O[C@H](COC(=O)/C=C/c3ccc(O)c(O)c3)[C@H]2O)[C@H](O)[C@H](O)[C@H]1O` [Compound 8, isoacteoside] here?
The IC50 was 1.2 ± 0.032 mM.

For `C[C@@H]1O[C@@H](O[C@@H]2[C@@H](O)[C@H](OCCc3ccc(O)c(O)c3)O[C@H](CO)[C@H]2OC(=O)/C=C/c2ccc(O)c(O)c2)[C@H](O)[C@H](O)[C@H]1O` [Compound 7, acteoside], which IC50 is on record?
Its IC50 is 0.518 ± 0.017 mM.

For `CCCCC/C=C/c1c(O)cc(CC=C(C)C)c(O)c1C=O` [Compound 18, tetrahydroauroglaucin], which IC50 is on record?
Its IC50 is 0.283 ± 0.013 mM.

With `CCC/C=C/C=C/c1c(O)cc(CC=C(C)C)c(O)c1C=O` [Compound 19, dihydroauroglaucin] as the compound, how does the IC50 read?
Its IC50 is 0.255 ± 0.013 mM.

For `CCCCCCCc1c(O)cc(CC=C(C)C)c(O)c1C=O` [Compound 17, flavoglaucin], which IC50 is on record?
Its IC50 is 0.229 ± 0.017 mM.

Which IC50 does the source give for `CC1=C(CCc2ccoc2)C2(C)CCCC(C)(CO)C2CC1` (centres unmarked) [Compound 4, 15,16-eposy-8,13(16),14-labdatrien-19-ol] here?
The IC50 was 0.067 ± 0.003 mM.

With `CC1(C(=O)O)CCCC2(C)c3cc4c(c(O)c3CCC12)COC4=O` (centres unmarked) [Compound 2, 14-hydroxyabieta-8,11,13-triene-17-oic-12-carboxy-13-(1-hydroxy-1-methylethyl)-lactone] as the compound, how does the IC50 read?
The IC50 was 0.624 ± 0.026 mM.

Which IC50 does the source give for `CCCCCc1cc2c(C=O)c(O)c(CC=C(C)C)cc2o1` [Compound 20, 2-(2′,3-epoxy-1′-heptenyl)-6-hydroxy-5-(3″-methyl-2″-butenyl) benzaldehyde] here?
Its IC50 is 0.371 ± 0.015 mM.

Which IC50 does the source give for `CC1(C(=O)O)CCCC2(C)c3c(C=O)c4c(c(O)c3CCC12)COC4=O` (centres unmarked) [Compound 1, 14-hydroxyabieta-8,11,13-triene-11-carbaldehyde-18-oic-12-carboxy-13-(1-hydroxy-1-methylethyl)-lactone] here?
The IC50 was 0.379 ± 0.016 mM.

Which IC50 does the source give for `O=c1cc(-c2ccc(O)c(O)c2)oc2cc(O)cc(O)c12` [Compound 11, luteolin] here?
Its IC50 is 0.428 ± 0.018 mM.

With `CC1=C(CCc2ccoc2)C2(C)CCCC(C)(C)C2CC1` (centres unmarked) [Compound 6, 15,16-eposy-8,13(16),14-labdatrien] as the compound, how does the IC50 read?
Its IC50 is 0.21 ± 0.01 mM.

Which IC50 does the source give for `CC1=C(CCc2ccoc2)C2(C)CCCC(C)(C(=O)O)C2CC1` (centres unmarked) [Compound 5, phlomisoic acid] here?
The IC50 was 0.482 ± 0.019 mM.

For `CC1OC(Oc2c(-c3ccc(O)c(O)c3)oc3cc(O)cc(O)c3c2=O)C(O)C(O)C1O` (centres unmarked) [Compound 12, quercetin-3-rhamnoside], which IC50 is on record?
The IC50 was 0.562 ± 0.021 mM.
